US11020398B2, “Amino-pyrrolopyrimidinone compounds and methods of use thereof” (ArQule, Inc., priority 2016, dated 2021)

What was measured:
[1] = target: full-length activated BTK mutant C481S (Homo sapiens (Human), UniProt Q06187, C481S); experiment: AlphaScreen assay, BTK mutant C481S; assay type: biochemical
Method: (§1) The activated BTK was frozen in 50 μl aliquots (125-150 μg/ml).
(§2) BTK activity was assayed using a PLCγ2-derived biotinylated peptide substrate (biotin-[…]-OH) and AlphaScreen™ (Amplified Luminescent Proximity Homogeneous Assay) technology. The extent of peptide phosphorylation was determined by using acceptor beads conjugated to phosphotyrosine antibody that recognized the phosphorylated peptide and donor beads conjugated to streptavidin that binds to the biotin on the peptide. Excitation of the donor beads converted ambient oxygen to excited singlet oxygen which when in close proximity to acceptor beads, reacted with acceptor beads resulting in signal amplification.
(§3) Test inhibitors and controls were prepared in 10% DMSO at 10-fold the desired final concentration and added to each well of a reaction plate (Corning 96-well half-area solid white nonbinding surface plate) in a volume of 2.5 μl. […] The plate was incubated for 120 min at room temperature and the reaction stopped by the addition of 10 μl stop/detection mixture containing 35 mM EDTA, 50 ug/ml AlphaScreen™ Streptavidin Donor beads (final concentration is 500 ng/well) and AlphaScreen™ Phospho-tyrosine (P-Tyr-100) Acceptor beads (final concentration is 500 ng/well) under green light conditions. The plate was incubated overnight at room temperature in the dark and the plates read on the BMG PolarStar Omega ([…], Gain=4000). Data were archived and analyzed with a 4-parameter fit to generate IC50 values using the CDD Vault from Collaborative Drug Discovery.

[2] = target: full-length activated BTK (wildtype) (Homo sapiens (Human), UniProt Q06187); experiment: AlphaScreen assay, wild-type BTK; assay type: biochemical
Method: as §1, §2, §3

Sequence of full-length activated BTK mutant C481S (Q06187 whole entry C481S): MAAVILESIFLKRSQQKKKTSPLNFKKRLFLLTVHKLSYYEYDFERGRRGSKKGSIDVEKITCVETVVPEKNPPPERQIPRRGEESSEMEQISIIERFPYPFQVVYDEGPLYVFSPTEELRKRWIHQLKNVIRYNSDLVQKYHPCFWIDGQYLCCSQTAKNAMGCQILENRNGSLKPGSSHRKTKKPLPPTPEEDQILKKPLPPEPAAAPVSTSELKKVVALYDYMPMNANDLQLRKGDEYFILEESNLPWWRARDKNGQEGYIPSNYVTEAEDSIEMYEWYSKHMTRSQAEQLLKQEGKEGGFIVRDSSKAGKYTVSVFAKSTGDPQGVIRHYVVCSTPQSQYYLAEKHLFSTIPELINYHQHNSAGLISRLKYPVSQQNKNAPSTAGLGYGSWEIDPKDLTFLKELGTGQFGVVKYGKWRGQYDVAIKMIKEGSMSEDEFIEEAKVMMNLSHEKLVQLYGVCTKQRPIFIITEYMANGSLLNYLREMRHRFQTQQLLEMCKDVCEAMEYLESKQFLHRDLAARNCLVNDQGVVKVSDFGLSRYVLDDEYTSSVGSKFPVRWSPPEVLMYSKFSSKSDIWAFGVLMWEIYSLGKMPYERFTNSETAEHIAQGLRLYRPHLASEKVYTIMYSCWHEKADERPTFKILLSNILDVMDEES
Sequence of full-length activated BTK (wildtype) (Q06187 whole entry): as the sequence (Q06187 whole entry C481S) above, with S481C counted along it

SMILES | IC50 [1] | IC50 [2] | inhibition at 10 µM ([1]; read-out: BTK-C481S % @ 10 uM, @ 10 uM)
C=CC(=O)N1CCCC(Nc2ncnc3[nH]cc(C(=O)c4ccc(Oc5ccccc5)cc4Cl)c23)C1 (racemic) [Compound I-321r, (racemic)-1-(3-((5-(2-chloro-4-phenoxybenzoyl)-7H-pyrrolo[2,3-d]pyrimidin-4-yl)amino)piperidin-1-yl)prop-2-en-1-one] | 179 nM | 4.5 nM | –
O=C(Nc1ccccc1)c1ccc(C(=O)c2c[nH]c3ncnc(N[C@@H]4CC[C@@H](CO)OC4)c23)cc1 [Compound I-231, 4-(4-(((3R,6S)-6-(hydroxymethyl)tetrahydro-2H-pyran-3-yl)amino)-7H-pyrrolo[2,3-d]pyrimidine-5-carbonyl)-N-phenylbenzamide] | 248 nM | 318 nM | –
O=C(Nc1ccccc1)c1ccc(C(=O)c2c[nH]c3ncnc(N[C@@H]4CC[C@@H](CO)OC4)c23)c(Cl)c1 [Compound I-236, 3-chloro-4-(4-(((3R,6S)-6-(hydroxymethyl)tetrahydro-2H-pyran-3-yl)amino)-7H-pyrrolo[2,3-d]pyrimidine-5-carbonyl)-N-phenylbenzamide] | 98.4 nM | 181 nM | –
O=C(Nc1ccncc1)c1ccc(C(=O)c2c[nH]c3ncnc(N[C@@H]4CC[C@@H](CO)OC4)c23)c(Cl)c1 [Compound I-246, 3-chloro-4-(4-(((3R,6S)-6-(hydroxymethyl)tetrahydro-2H-pyran-3-yl)amino)-7H-pyrrolo[2,3-d]pyrimidine-5-carbonyl)-N-(pyridin-4-yl)benzamide] | 514 nM | 103 nM | –
O=C(Nc1cccnc1)c1ccc(C(=O)c2c[nH]c3ncnc(N[C@@H]4CC[C@@H](CO)OC4)c23)c(Cl)c1 [Compound I-256, 3-chloro-4-(4-(((3R,6S)-6-(hydroxymethyl)tetrahydro-2H-pyran-3-yl)amino)-7H-pyrrolo[2,3-d]pyrimidine-5-carbonyl)-N-(pyridin-3-yl)benzamide] | 317 nM | 156 nM | –
O=C(Nc1ccc(C(=O)c2c[nH]c3ncnc(N[C@@H]4CC[C@@H](CO)OC4)c23)c(Cl)c1)c1ccccc1 [Compound I-276, N-(3-chloro-4-(4-(((3R,6S)-6-(hydroxymethyl)tetrahydro-2H-pyran-3-yl)amino)-7H-pyrrolo[2,3-d]pyrimidine-5-carbonyl)phenyl)benzamide] | 58 nM | 17.6 nM | –
O=C(c1ccc(N2CCOCC2)cc1Cl)c1c[nH]c2ncnc(N[C@@H]3CC[C@@H](CO)OC3)c12 [Compound I-311i, (2-chloro-4-morpholinophenyl)(4-(((3R,6S)-6-(hydroxymethyl)tetrahydro-2H-pyran-3-yl)amino)-7H-pyrrolo[2,3-d]pyrimidin-5-yl)methanone] | – | 867 nM | 81%
COCCOc1ccc(C(=O)c2c[nH]c3ncnc(N[C@@H]4CC[C@@H](CO)OC4)c23)c(Cl)c1 [Compound I-317i, (2-chloro-4-(2-methoxyethoxy)phenyl)(4-(((3R,6S)-6-(hydroxymethyl)tetrahydro-2H-pyran-3-yl)amino)-7H-pyrrolo[2,3-d]pyrimidin-5-yl)methanone] | 156 nM | 40.7 nM | –
COCCOc1ccc(C(=O)c2c[nH]c3ncnc(N[C@@H]4CC[C@@H](CO)OC4)c23)cc1 [Compound I-318i, (4-(((3R,6S)-6-(hydroxymethyl)tetrahydro-2H-pyran-3-yl)amino)-7H-pyrrolo[2,3-d]pyrimidin-5-yl)(4-(2-methoxyethoxy)phenyl)methanone] | 714 nM | 423 nM | –
CNC(=O)c1cccc(Oc2ccc(C(=O)c3c[nH]c4ncnc(N[C@@H]5CC[C@@H](CO)OC5)c34)c(Cl)c2)n1 [Compound I-319, 6-(3-chloro-4-(4-(((3R,6S)-6-(hydroxymethyl)tetrahydro-2H-pyran-3-yl)amino)-7H-pyrrolo[2,3-d]pyrimidine-5-carbonyl)phenoxy)-N-methyl picolinamide] | 127 nM | 444 nM | –
CNC(=O)c1cccc(Oc2ccc(C(=O)c3c[nH]c4ncnc(N[C@@H]5CC[C@@H](CO)OC5)c34)cc2)n1 [Compound I-320, 6-(4-(4-(((3R,6S)-6-(hydroxymethyl)tetrahydro-2H-pyran-3-yl)amino)-7H-pyrrolo[2,3-d]pyrimidine-5-carbonyl)phenoxy)-N-methylpicolinamide] | 63.1 nM | 336 nM | –

Other lines, results leading:

IC50 [1] | IC50 [2] | inhibition at 10 µM ([1]; read-out: BTK-C481S % @ 10 uM, @ 10 uM) | SMILES
98.6 nM | 10.4 nM | – | C=CS(=O)(=O)N1CCCC(Nc2ncnc3[nH]cc(C(=O)c4ccc(Oc5ccccc5)cc4Cl)c23)C1 (racemic) [Compound I-322r, (racemic)-(2-chloro-4-phenoxyphenyl)(4-((1-(vinylsulfonyl)piperidin-3-yl)amino)-7H-pyrrolo[2,3-d]pyrimidin-5-yl)methanone]
105 nM | 17.2 nM | – | CC#CC(=O)N1CCCC(Nc2ncnc3[nH]cc(C(=O)c4ccc(Oc5ccccc5)cc4Cl)c23)C1 (racemic) [Compound I-324r, (racemic)-1-(3-((5-(2-chloro-4-phenoxybenzoyl)-7H-pyrrolo[2,3-d]pyrimidin-4-yl)amino)piperidin-1-yl)but-2-yn-1-one]
136 nM | 0.98 nM | – | C=CC(=O)N1CCCC1CNc1ncnc2[nH]cc(C(=O)c3ccc(Oc4ccccc4)cc3Cl)c12 (racemic) [Compound I-325r, (racemic)-1-(2-(((5-(2-chloro-4-phenoxybenzoyl)-7H-pyrrolo[2,3-d]pyrimidin-4-yl)amino)methyl)pyrrolidin-1-yl)prop-2-en-1-one]
419 nM | 4.33 nM | – | C=CS(=O)(=O)N1CCCC1CNc1ncnc2[nH]cc(C(=O)c3ccc(Oc4ccccc4)cc3Cl)c12 (racemic) [Compound I-326r, (racemic)-(2-chloro-4-phenoxyphenyl)(4-(((1-(vinylsulfonyl)pyrrolidin-2-yl)methyl)amino)-7H-pyrrolo[2,3-d]pyrimidin-5-yl)methanone]
18.4 nM | 0.98 nM | – | CC#CC(=O)N1CCCC1CNc1ncnc2[nH]cc(C(=O)c3ccc(Oc4ccccc4)cc3Cl)c12 (racemic) [Compound I-328r, (racemic)-1-(2-(((5-(2-chloro-4-phenoxybenzoyl)-7H-pyrrolo[2,3-d]pyrimidin-4-yl)amino)methyl)pyrrolidin-1-yl)but-2-yn-1-one]
34 nM | 11 nM | – | O=C(c1ccc(Oc2ccccc2)cc1Cl)c1c[nH]c2ncnc(NC3CCC(CO)NC3)c12 (racemic) [Compound I-343r, rac-(2-chloro-4-phenoxyphenyl)(4-((6-(hydroxymethyl)piperidin-3-yl)amino)-7H-pyrrolo[2,3-d]pyrimidin-5-yl)methanone]
124 nM | 29.4 nM | – | O=C(c1ccc(Oc2ccccc2)cc1Cl)c1c[nH]c2ncnc(NC[C@H]3CCC[C@@H](CO)N3)c12 (racemic) [Compound I-359e, racemic-cis-(2-chloro-4-phenoxyphenyl)(4-(((6-(hydroxymethyl)piperidin-2-yl)methyl)amino)-7H-pyrrolo[2,3-d]pyrimidin-5-yl)methanone]
59.4 nM | 1.07 nM | – | CN1[C@H](CO)CCC[C@@H]1CNc1ncnc2[nH]cc(C(=O)c3ccc(Oc4ccccc4)cc3Cl)c12 (racemic) [Compound I-360e, racemic-cis-(2-chloro-4-phenoxyphenyl)(4-(((6-(hydroxymethyl)-1-methylpiperidin-2-yl)methyl)amino)-7H-pyrrolo[2,3-d]pyrimidin-5-yl)methanone]
38.8 nM | 10 nM | – | CS(=O)(=O)N1CC(Nc2ncnc3[nH]cc(C(=O)c4ccc(Oc5ccccc5)cc4Cl)c23)CCC1CO (racemic) [Compound I-653, (racemic)-(2-chloro-4-phenoxyphenyl)(4-((6-(hydroxymethyl)-1-(methylsulfonyl)piperidin-3-yl)amino)-7H-pyrrolo[2,3-d]pyrimidin-5-yl)methanone]
20.7 nM | 6.55 nM | – | CC(=O)N1CC(Nc2ncnc3[nH]cc(C(=O)c4ccc(Oc5ccccc5)cc4Cl)c23)CCC1CO (racemic) [Compound I-654, rac-1-(5-((5-(2-chloro-4-phenoxybenzoyl)-7H-pyrrolo[2,3-d]pyrimidin-4-yl)amino)-2-(hydroxymethyl)-piperidin-1-yl)ethan-1-one]
33.4 nM | 14.2 nM | – | CN1C[C@H](Nc2ncnc3[nH]cc(C(=O)c4ccc(Oc5ccccc5)cc4Cl)c23)C[C@H]1CO [Compound I-342e, (2-chloro-4-phenoxyphenyl)(4-(((3R,5S)-5-(hydroxymethyl)-1-methylpyrrolidin-3-yl)amino)-7H-pyrrolo[2,3-d]pyrimidin-5-yl)methanone]
68.2 nM | 10.1 nM | – | O=C(c1ccc(Oc2ccccc2)cc1Cl)c1c[nH]c2ncnc(N[C@H]3CN[C@H](CO)C3)c12 [Compound I-345e, (2-chloro-4-phenoxyphenyl)(4-(((3R,5S)-5-(hydroxymethyl)pyrrolidin-3-yl)amino)-7H-pyrrolo[2,3-d]pyrimidin-5-yl)methanone]
44.5 nM | 35.6 nM | – | O=C(c1ccc(Oc2ccccc2)cc1Cl)c1c[nH]c2ncnc(NC[C@H]3CC[C@@H](CO)O3)c12 [Compound I-362e, (2-chloro-4-phenoxyphenyl)(4-((((2R,5S)-5-(hydroxymethyl)tetrahydrofuran-2-yl)methyl)amino)-7H-pyrrolo[2,3-d]pyrimidin-5-yl)methanone]
